Source: patent publication US20120288883A1, “PROBE REAGENT FOR MEASUREMENT OF PROTEOLYTIC ACTIVITY” (RIKEN, priority 2010, published 2012)

System: ubiquitin-proteasome system
Assay: Screening for degradation-terminating peptide: FRET fluorescence imaging of probe reagents expressed in HeLa cells
Format: cell-based
Conditions: CyPet/YPet probe with Geminin (1/110) degron
Description: In order to develop a probe reagent of interest, p105 was screened for a peptide sequence capable of terminating degradation. CyPet as a fluorescent protein I, YPet as a fluorescent protein II, and Geminin as a degron protein were used to prepare an experimental probe reagent (FIG. 2). The fluorescent protein CyPet is derived from CFP and has an excitation wavelength peak of 435 nm and a fluorescence wavelength peak of 477 nm. The fluorescent protein YPet is derived from YFP and has an excitation wavelength peak of 517 nm and a fluorescence wavelength peak of 530 nm. This pair is known to efficiently cause FRET with CyPet as a donor and YPet as an acceptor. The protein Geminin is a factor controlling the progression of cell cycle and has the function of inhibiting the licensing of DNA replication (Cell 1998; 93 (11): 1043-1053; and Am. J. Pathol. 2002; 161 (1): 267-273). Its abundance is strictly controlled during cell cycle so that its expression level increases in the S/G2/M phases and this protein disappears due to the promoted degradation by the ubiquitin-proteasome system in the G1 phase. A region of N-terminal amino acids 1-110 (Geminin (1/110)) containing a moiety necessary for the degradation of the Geminin molecule was selected from the structure of Geminin (e.g., NM_015895 (human, SEQ ID NOs: 18 and 19), NM_020567 (mouse)) and used in this experiment.
The respective cDNAs of these molecules were amplified by PCR and ligated by insertion to each restriction enzyme site in the multicloning site of a cloning vector pBluescript II SK(+) (Stratagene) to prepare gene DNA of the probe reagent. A region of amino acids 366-440 in human-derived p105 (SEQ ID NOs: 16 and 17) was screened for a peptide sequence for terminating degradation. This region contains GRR and processing point.
The prepared gene DNA of the probe reagent was then excised from the pBlueScript vector with restriction enzymes, and this fragment was inserted into the multicloning site of an expression vector CSII-EF-MCS to prepare a vector for expression in cultured cells.
HeLa cells were cultured in a Dulbecco's modified Eagle's medium containing 10% fetal bovine serum in a 35 mmφ glass-bottomed dish. The prepared vector plasmid was mixed with a transfection reagent FuGENE (Roche Applied Science) and added to the medium. The HeLa cells were cultured in a CO2 incubator for 2 days so that the cells expressed the probe reagent and experienced cell cycle.
This is because the intramolecular nuclear localization signal of the Geminin protein, which functions in the nucleus, allowed the probe reagent to be selectively incorporated into the nucleus. The amount of Geminin changes periodically depending on the promoted or suppressed degradation by the ubiquitin-proteasome system in accordance with cell cycle. If the degradation of the probe reagent accompanying the degradation of Geminin is terminated by the degradation-terminating peptide, CyPet accumulates in the cell during every cell cycle without being degraded and thus reduces an YPet/CyPet fluorescence intensity ratio serving as an index value for FRET at the time of CyPet excitation. After the degradation of Geminin, the probe reagent lacks the nuclear localization signal. As a result, the remaining CyPet molecule also becomes distributed in the cytoplasm. The cells were fluorescently imaged from these viewpoints and screened for a peptide capable of terminating degradation.
An inverted microscope (IX70, Olympus Corp.) was used in cell observation. Fluorescence images were obtained using a 3-CCD cooled color camera (ORCA-3CCD, Hamamatsu Photonics K.K.). This camera can simultaneously capture images in three wavelength (red, green, and blue) regions and merge them to form observable color images. Also, it can individually measure the brightness of the image in each wavelength region. After excitation with a 440 nm band-pass filter, the fluorescence images of the cells were obtained through a 460 nm long-pass filter. […]

Substance	ability of the peptide to terminate degradation of the probe reagent
p105 (392/440): probe reagent containing human p105 amino acids 392-440 (SEQ ID NO: 5) (GGGGGGTGSTGPGYSFPHYGFPTYGGITFHPGTTKSNAGMKHGTMDTES; listed as Homo sapiens)	capable of efficiently terminating protein degradation
p105 (376/434): probe reagent containing human p105 amino acids 376-434 (SEQ ID NO: 7) (GGGSGAGAGGGGMFGSGGGGGGTGSTGPGYSFPHYGFPTYGGITFHPGTTKSNAGMKHG; listed as Homo sapiens)	capable of efficiently terminating protein degradation
GRR: glycine-rich region, amino acids 376-404 of human p105, tested alone as degradation-terminating peptide	failed to terminate the degradation
p105 (376/409): probe reagent containing human p105 amino acids 376-409 (SEQ ID NO: 11) (GGGSGAGAGGGGMFGSGGGGGGTGSTGPGYSFPH; listed as Homo sapiens)	capable of efficiently terminating protein degradation
p105 (382/440): probe reagent containing human p105 amino acids 382-440 (SEQ ID NO: 3) (GAGGGGMFGSGGGGGGTGSTGPGYSFPHYGFPTYGGITFHPGTTKSNAGMKHGTMDTES; listed as Homo sapiens)	capable of efficiently terminating protein degradation
p105 (376/420): probe reagent containing human p105 amino acids 376-420 (SEQ ID NO: 9) (GGGSGAGAGGGGMFGSGGGGGGTGSTGPGYSFPHYGFPTYGGITF; listed as Homo sapiens)	capable of efficiently terminating protein degradation
